Data from patent EP4667464A1 (Cyrus Therapeutics Inc., priority 2023, dated 2024).
Like-named read-outs stand apart in the source and are kept apart here.

How the values were obtained:
[1] = molecular target: T1, SOS1 (Homo sapiens, UniProt Q07889); assay: SOS-catalyzed nucleotide exchange assay (HTRF, SOS1-mediated GTP loading of KRAS G12D); assay type: biochemical
T1 construct: HIS-SOS1cat (160 nM; Cytoskeleton, US); His (N); purchased Cytoskeleton
T1 sequence (Q07889 564-1049 limits assumed): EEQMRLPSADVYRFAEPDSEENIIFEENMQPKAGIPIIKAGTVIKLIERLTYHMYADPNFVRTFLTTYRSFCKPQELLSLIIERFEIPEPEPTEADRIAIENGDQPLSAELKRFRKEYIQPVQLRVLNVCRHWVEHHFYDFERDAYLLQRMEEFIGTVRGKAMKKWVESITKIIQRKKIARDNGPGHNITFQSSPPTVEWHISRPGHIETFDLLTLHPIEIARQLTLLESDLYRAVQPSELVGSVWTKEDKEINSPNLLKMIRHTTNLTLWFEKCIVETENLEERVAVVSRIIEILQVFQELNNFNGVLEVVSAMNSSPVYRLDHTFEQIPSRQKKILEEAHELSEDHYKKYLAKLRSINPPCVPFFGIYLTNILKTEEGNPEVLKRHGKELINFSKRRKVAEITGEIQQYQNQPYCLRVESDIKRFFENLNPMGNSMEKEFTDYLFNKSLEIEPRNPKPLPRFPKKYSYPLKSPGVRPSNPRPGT
Procedure: SOS1 activity was measured by SOS1-mediated GTP loading quantification of KRAS^G12D. GTP loaded KRAS^G12D was detected by HTRF (Homogeneous Time Resolved Fluorescence) using anti-GST terbium (Cisbio, France) as a donor and a fluorescence GTP analogue (EDA-GTP-DY-647P1, [DY-647P1 labeled 2'/3'-O-(2-aminoethyl-carbamoyl)guanosine-5'-triphosphate (Jena bioscience, Germany)]) as an acceptor.
KRAS^G12D working solution was prepared by adding equal amounts of GST-KRAS^G12D (100 nM) and anti-GST-terbium (2 nM; Cisbio, France) to the assay buffer and culturing on ice for 10 minutes. […] Control solution was prepared by adding equal volumes of EDA-GTP-DY-647P1 and the assay buffer for normalization control to exclude GEF-independent GTP loading and background signals.
10 uL of the KRAS^G12D solution was added to each well and incubated for 30 minutes at room temperature while shaking. HTRF was measured using a Thermo Varioskan (excitation 334 nm, emission 665 nm). The IC50 of each inhibitor was analyzed using Graphad Prism.

[2] = molecular target: T2, KRAS G12C::SOS1 (Homo sapiens, UniProt Q07889); assay: KRAS G12C::SOS1 protein-protein interaction (PPI) inhibition assay (HTRF); assay type: binding
T2 construct: purchased CISBIO 64KRASG12PEH
T2 sequence (Q07889 1-1333): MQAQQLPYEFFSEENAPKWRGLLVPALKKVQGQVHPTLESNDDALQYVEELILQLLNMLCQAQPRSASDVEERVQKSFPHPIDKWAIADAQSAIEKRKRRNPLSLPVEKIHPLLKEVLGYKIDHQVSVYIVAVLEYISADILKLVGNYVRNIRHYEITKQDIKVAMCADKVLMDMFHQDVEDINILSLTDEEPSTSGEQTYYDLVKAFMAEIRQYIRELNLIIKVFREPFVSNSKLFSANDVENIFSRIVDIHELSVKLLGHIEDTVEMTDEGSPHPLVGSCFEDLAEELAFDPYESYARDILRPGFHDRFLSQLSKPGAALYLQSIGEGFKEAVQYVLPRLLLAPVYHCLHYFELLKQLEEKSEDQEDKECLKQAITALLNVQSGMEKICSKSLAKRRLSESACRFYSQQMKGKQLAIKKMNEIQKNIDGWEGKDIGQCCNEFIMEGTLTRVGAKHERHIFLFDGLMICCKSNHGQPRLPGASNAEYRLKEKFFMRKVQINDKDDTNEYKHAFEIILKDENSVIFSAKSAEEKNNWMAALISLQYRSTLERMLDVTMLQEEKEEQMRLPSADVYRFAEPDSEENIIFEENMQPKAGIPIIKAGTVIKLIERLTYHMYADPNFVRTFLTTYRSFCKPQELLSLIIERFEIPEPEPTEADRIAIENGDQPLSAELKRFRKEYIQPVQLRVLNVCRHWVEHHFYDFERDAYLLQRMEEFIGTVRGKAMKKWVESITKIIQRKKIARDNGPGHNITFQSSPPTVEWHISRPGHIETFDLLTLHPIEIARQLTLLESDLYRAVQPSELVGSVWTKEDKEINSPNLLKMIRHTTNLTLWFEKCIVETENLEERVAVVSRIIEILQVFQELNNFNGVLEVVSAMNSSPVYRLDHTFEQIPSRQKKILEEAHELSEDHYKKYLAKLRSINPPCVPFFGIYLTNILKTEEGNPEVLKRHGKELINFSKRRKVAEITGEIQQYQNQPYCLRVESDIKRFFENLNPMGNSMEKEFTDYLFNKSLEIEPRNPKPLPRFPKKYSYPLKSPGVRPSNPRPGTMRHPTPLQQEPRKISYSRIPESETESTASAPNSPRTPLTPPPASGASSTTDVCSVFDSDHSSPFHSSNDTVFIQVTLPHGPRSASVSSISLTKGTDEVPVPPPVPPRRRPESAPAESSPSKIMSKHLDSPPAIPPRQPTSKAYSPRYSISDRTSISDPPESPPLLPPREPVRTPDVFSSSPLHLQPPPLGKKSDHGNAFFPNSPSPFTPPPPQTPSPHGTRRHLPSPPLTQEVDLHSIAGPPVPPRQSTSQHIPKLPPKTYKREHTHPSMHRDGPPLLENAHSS
Procedure: Protein-protein interaction between SOS1 and KRAS^G12c was detected using KRAS G12C/SOS1 binding kit from CISBIO (64KRASG12PEH, CISBIO, FRANCE) according to the manufacturer's assay method. Briefly, the maximum concentration of an inhibitor sample was set to be 3 µM, and the inhibitor sample was diluted 7 times by 1/3, and samples having a total of 8 concentrations were prepared. In HTRF (Homogeneous Time-Resolved Fluorescence) exclusive 96-well low-volume white plate (66PL96005, CISBIO, FRANCE), 2 µL of an inhibitor sample prepared for each concentration, 5 µL of a mixed solution of Tag1 labeled KRAS^G12c protein and GTP diluted with the dilution solution provided by the manufacturer, and 5 µL of Tag2 labeled SOS1 protein were mixed, and added with 8 µL of a diluted solution where anti-Tag1 KRAS^G12C XL665 (HTRF acceptor) labeled antibody and anti-Tag2 SOS1 Terbium cryptate (HTRF donor) labeled antibody were mixed in an equal ratio and cultured at room temperature for 2 h.

[3] = GST-KRAS G12D, HIS-SOS1cat, compound 128 pM to 10 µM, read-out: SOS-catalyzed nucleotide exchange assay
[4] = 8 concentrations from 3 µM, three replicates, read-out: KRAS G12C::SOS1 PPI

SMILES | IC50 [1, 3] | IC50 [2, 4] | other results
C[C@@H](NC(=O)c1ccc(=O)n(-c2cncc(-c3cnnn3[C@@H]3CC3(F)F)c2)n1)c1cccc(C(F)(F)CO)c1F (single isomer, unassigned) [Example 26] |  |  | IC50 [1]: < 0.05 µM; IC50 [2]: < 0.05 µM
C[C@@H](NC(=O)c1ccc(=O)n(-c2cncc(-c3cnnn3C3CC3)c2)c1)c1cccc(C(F)(F)F)c1F [Example 1-68, 1-[5-(1-cyclopropyl-1H-1,2,3-triazol-5-yl)-3-pyridyl]-N-[(1R)-1-[2-fluoro-3-(trifluoromethyl)phenyl]ethyl]-2-oxo-2H-[1,3'-bipyridine]-5-carboxamide] | < 0.05 µM | < 0.05 µM | 
C[C@@H](NC(=O)c1cc(C#N)c(=O)n(-c2cc(-c3cnnn3C3CC3)cnc2F)n1)c1cccc(C(F)(F)F)c1F [Example 3-4, 5-cyano-N-[(1R)-1-[2-fluoro-3-(trifluoromethyl)phenyl]ethyl]-1-(5-(1-cyclopropyl-1H-1,2,3-triazol-5-yl)-2-fluoropyridin-3-yl)-6-oxo-1,6-dihydropyridazine-3-carboxamide] | 0.05 to 0.15 µM | 0.05 to 0.15 µM | 
C[C@@H](NC(=O)c1ccc(=O)n(-c2cc(-c3cnnn3C3CC3)cnc2F)n1)c1cccc(C(F)(F)CO)c1F [Example 6-8] |  |  | IC50 [1]: < 0.05 µM; IC50 [2]: < 0.05 µM
CC(C)n1nncc1-c1cncc(-n2nc(C(=O)N[C@H](C)c3cccc(C(F)(F)F)c3F)ccc2=O)c1 [Example 1-49, N-[(1R)-1-[2-fluoro-3-(trifluoromethyl)phenyl]ethyl]-1-[5-(3-isopropyltriazol-4-yl)-3-pyridyl]-6-oxo-pyridazine-3-carboxamide] |  |  | IC50 ([1]; read-out: SOS-catalyzed nucleotide exchange assay, GST-KRAS G12D, HIS-SOS1cat, compound 128 pM to 10 µM): 0.05 to 0.15 µM; IC50 ([2]; read-out: KRAS G12C::SOS1 PPI, 8 concentrations from 3 µM, three replicates): < 0.05 µM
C[C@@H](NC(=O)c1ccc(=O)n(-c2cncc(-c3cnnn3[C@H]3CC3(F)F)c2)n1)c1cccc(C(F)(F)F)c1F [Example 23, 1-[5-[3-[(1S)-2,2-difluorocyclopropyl]triazol-4-yl]-3-pyridyl]-N-[(1R)-1-[2-fluoro-3-(trifluoromethyl)phenyl]ethyl]-6-oxo-pyridazine-3-carboxamide] |  |  | IC50 [1]: 0.05 to 0.15 µM; IC50 [2]: 0.05 to 0.15 µM
C[C@@H](NC(=O)c1ccc(=O)n(-c2cncc(-c3cnnn3[C@H]3CCNC3)c2)n1)c1cccc(C(F)(F)F)c1F [Example 20-5, N-[(1R)-1-[2-fluoro-3-(trifluoromethyl)phenyl]ethyl]-6-oxo-1-[5-[3-[(3S)-pyrrolidin-3-yl]triazol-4-yl]-3-pyridyl]pyridazine-3-carboxamide] |  |  | IC50 [1]: 0.05 to 0.15 µM; IC50 [2]: 0.05 to 0.15 µM
[2H]c1cc(C(=O)N[C@H](C)c2cccc(C(F)(F)CO)c2F)nn(-c2cncc(-c3cnnn3C3CC3)c2)c1=O [Example 1-43] | < 0.05 µM | < 0.05 µM | 
C[C@@H](NC(=O)c1ccc(=O)n(-c2cncc(-c3cnnn3C)n2)c1)c1cccc(C(F)(F)F)c1F [Example 1-48, N-{(R)-1-[2-fluoro-3-(trifluoromethyl)phenyl]ethyl}-1-[6-(1-methyl-1H-1,2,3-triazol-5-yl)pyrazin-2-yl]-6-oxo-1,6-dihydropyridine-3-carboxamide] | > 0.15 µM | > 0.15 µM | 

Second part, led by results:

IC50 [1, 3] | IC50 [2, 4] | SMILES | other results
0.05 to 0.15 µM | 0.05 to 0.15 µM | CCn1nncc1-c1cc(-n2nc(C(=O)N[C@H](C)c3cccc(C(F)(F)F)c3F)ccc2=O)cnc1C [Example 1-27, 1-[5-(3-ethyltriazol-4-yl)-6-methyl-3-pyridyl]-N-[(1R)-1-[2-fluoro-3-(trifluoromethyl)phenyl]ethyl]-6-oxo-pyridazine-3-carboxamide] | 
< 0.05 µM | < 0.05 µM | Cc1cc(C(=O)N[C@H](C)c2cccc(C(F)(F)COS(=O)(=O)c3ccccn3)c2F)nn(-c2cncc(-c3cnnn3C)c2)c1=O [Example 8, N-[(R)-1-{3-[1,1-difluoro-2-(2-pyridylsulfonyloxy)ethyl]-2-fluorophenyl}ethyl]-5-methyl-1-[5-(1-methyl-1H-1,2,3-triazol-5-yl)-3-pyridyl]-6-oxo-1,6-dihydropyridazine-3-carboxamide] | 
> 0.15 µM | 0.05 to 0.15 µM | C[C@@H](NC(=O)c1cc(C2CCCCC2)c(=O)n(-c2cncc(-c3cnnn3C)c2)n1)c1cccc(C(F)(F)F)c1F [Example 1-65, N-{(R)-1-[2-fluoro-3-(trifluoromethyl)phenyl]ethyl}-5-cyclohexyl-1-[5-(1-methyl-1H-1,2,3-triazol-5-yl)-3-pyridyl]-6-oxo-1,6-dihydropyridazine-3-carboxamide] | 
< 0.05 µM | < 0.05 µM | CCn1nncc1-c1cncc(-n2nc(C(=O)N[C@H](C)c3cccc(C(F)(F)CO)c3F)ccc2=O)c1 [Example 1-18, N-[(1R)-1-[3-(1,1-difluoro-2-hydroxy-ethyl)-2-fluoro-phenyl]ethyl]-1-[5-(3-ethyltriazol-4-yl)-3-pyridyl]-6-oxo-pyridazine-3-carboxamide] | 
0.05 to 0.15 µM | < 0.05 µM | C[C@@H](NC(=O)c1cc(C(F)(F)F)c(=O)n(-c2cncc(-c3cnnn3C)c2)n1)c1cccc(C(F)(F)F)c1F [Example 1-69, N-[(R)-1-[2-fluoro-3-(trifluoromethyl)phenyl]ethyl]-1-[5-(1-methyl-1H-1,2,3-triazol-5-yl)-3-pyridyl]-6-oxo-5-(trifluoromethyl)-pyridazine-3-carboxamide] | 
0.05 to 0.15 µM | > 0.15 µM | C[C@@H](NC(=O)c1cc(Cl)c(=O)n(-c2cncc(-c3c(Cl)nnn3C)c2)n1)c1cccc(C(F)F)c1F [Example 12, N-{(R)-1-[3-(difluoromethyl)-2-fluorophenyl]ethyl}-5-chloro-1-[5-(4-chloro-1-methyl-1H-1,2,3-triazol-5-yl)-3-pyridyl]-6-oxo-1,6-dihydropyridazine-3-carboxamide] | 
